Measured values reported in patent US12023315B2, “Pharmaceutical compositions and methods utilizing neostigmine and an NK-1 antagonist for treating myasthenia gravis” (priority 2017, dated 2024).

Tested on: gastro-intestinal side effects of neostigmine in human subjects
Experiment: Phase I single-blind, placebo-controlled study: single oral neostigmine bromide with or without single oral aprepitant
Type: in vivo
Settings: human volunteers; single oral aprepitant (up to 125 mg) co-administered with first intolerable oral dose (FID) of neostigmine bromide; follow-up up to 8 hours
Procedure: The ability of the NK1-antagonists for preventing the adverse effects of orally administered neostigmine bromide in humans is tested.
A Phase I study is conducted in human subjects receiving a single oral dose of neostigmine bromide with or without a single oral dose of aprepitant hydrochloride dihydrate, as a representative NK1-antagonist. The study is a single center, single-blind, placebo-controlled study.
To be enrolled in the study, participants are to meet the following inclusion/exclusion criteria:
Key Inclusion Criteria • 1. Male or female volunteers between the ages of 18 and 60 years inclusive are required to be in good health, to refrain from consuming xanthine, quinine and caffeine containing beverages, and to refrain from prolonged intensive physical exercise during the study conduct. • 2. […] Subjects had to be in good health according to their medical history including personal and family psychiatric history, physical examination, ECG, vital signs, and laboratory tests. […] Subjects had to be able to swallow multiple pills simultaneously.
Key Exclusion Criteria • 1. Any clinically relevant acute or chronic disease which could interfere with the subjects' safety during the trial, expose them to undue risk, or interfere with the study objectives. • 2. […]

**Q.** With `C[C@@H](O[C@H]1OCCN(Cc2nc(=O)[nH][nH]2)[C@H]1c1ccc(F)cc1)c1cc(C(F)(F)F)cc(C(F)(F)F)c1` [aprepitant, 5-[[(2R,3S)-2-[(1R)-1-[3,5-bis(trifluoromethyl)phenyl]ethoxy]-3-(4-fluorophenyl)-4-morpholinyl]methyl]-1,2-dihydro-3H-1,2,4-triazol-3-one] as the molecule, how does the “occurrence of gastro-intestinal AEs with neostigmine” value read?
**A.** The value was “prevents or attenuates the occurrence of gastro-intestinal AEs”.
